Laboratory results reported in patent publication US20250339391A1, “METHODS FOR EFFECTIVE MANAGEMENT OF PAIN” (South Rampart Pharma, Inc., priority 2024, published 2025).
“Also recorded” adds a separate entry of the source.

Columns and labels:
[1] = test system: conscious telemetered beagle dogs; experiment: Cardiovascular effect in conscious telemetered beagle dogs (GLP); type: in vivo, dog
Experimental: The effects of SRP-001 on hERG current amplitude at physiologic temperatures were evaluated over a nominal concentration range of 0.1 μM to 100M. A vehicle group (10% DMSO) was included in the study for comparison, and dofetilide (10 nM) was used as a reference substance. The vehicle and positive controls indicated appropriate sensitivity of the test systems. […] Next, the potential acute effects of oral SRP-001 on cardiovascular function in conscious telemetered beagle dogs was done using a Latin Square design; 4 male naïve beagle dogs each received vehicle (10% DMSO: 10% labrasol: 80% PEG400) and three doses (30, 90, and 150 mg/kg) of SRP-001 nanosuspension by oral gavage. […] A single dose was administered on the day of dosing, and a washout period of seven days was allowed between doses. One-min means of hemodynamic parameters, as well as ECG parameters and body temperature, were measured for a period of at least 24 h. One-min tracings of the ECGs were obtained at 15 min prior to dosing and at 30 min, 1, 2, 4, 8, 12, and 24 h post-dose. Qualitative evaluation of the ECGs was done by a board-certified veterinary cardiologist.

Male rats = experiment: Rat micronucleus in vivo study
Experimental: The induction of numerical aberrations was within the 95% control limit of the historical negative control data. […] Approximately 48 h after the second dose administration, peripheral blood was collected for flow cytometric analysis of micronuclei. There was no significant increase in the incidence of micronuclei in the test article-dosed animals compared to the concurrent vehicle control. The vehicle control value was compatible with the historical range of % micronucleated reticulocytes (MnRETs). There was a statistically significant increase in MnRETs in the positive control compared to the concurrent vehicle control. […] The vehicle control was 10% Labrasol, 10% DMSO, and 80% PEG400. The positive control for the Comet assay, ethyl methanesulfonate (EMS), was orally administered at 200 mg/kg/dose for two consecutive days at a dose volume of 10 mL/kg/dose. […] Animals were euthanized 3-4 h after the last dose administration. The liver and glandular stomach were collected and processed for comet evaluation.

Sprague-Dawley rats [2] = experiment: 5-day repeat-dose oral toxicity and toxicokinetics in Sprague-Dawley rats (non-GLP); type: in vivo, rat
Experimental: 4) A Dose-Range-Finding Oral Toxicity Study with SRP-001 in Sprague-Dawley Rats (Non-GLP) As part of a two-phase study, repeat-dose toxicity and toxicokinetics of SRP-001, when administered via oral gavage once daily to Sprague-Dawley rats for 5 d, was done (Calvert Labs/Altasciences, Scott Township, PA USA). The doses selected for Phase II were based on the results of Phase I. SRP-001 was administered to 20 naïve rats (5/group in Groups 5-8) once daily for 5 days via oral gavage for toxicology evaluation and once to 18 naïve rats (6/group in Groups 9-11) for toxicokinetic evaluation.
Mortality/morbidity was performed twice daily and once prior to sacrifice. Clinical observations were evaluated prior to each dose administration and approximately 1-3 h post-dose for animals in Groups 5-8. Body weights were recorded prior to randomization/selection, prior to dose administration on day 1 for animals in Groups 5-11, and prior to dose administration on day 5 for Groups 5-8. Food consumption was recorded for animals from Groups 5-8 on day 5. Blood for evaluation of hematology, coagulation and clinical chemistry and urine for urinalysis was collected from animals in Groups 5-8 on day 6. All animals in Groups 5-8 were sacrificed on […]. Selected tissues were harvested at necropsy, selected organs weighed, and selected tissues preserved. Blood for toxicokinetic evaluation was collected from animals in Groups 9-11 at selected timepoints on day 1 to ensure comprehensive data capture. These timepoints include 0 hour (pre-dose) and post-dose intervals of 1, 2, 4, 8, and 24 hours on both Day 1 and […] of the study. This schedule allows for a robust assessment of SRP-001's pharmacokinetic profile, including absorption, distribution, metabolism, and excretion and is in line with current FDA-guidelines for GLP studies.

Sprague-Dawley rats [3] = experiment: 28-day oral toxicity study in Sprague-Dawley rats with 14-day recovery (GLP); type: in vivo
Excerpt: 5) A 28-day Oral Toxicity Study of SRP-001 in Sprague-Dawley Rats with 14-day Recovery (GLP study) We next set out to determine the toxicity and toxicokinetics of SRP-001 when administered via oral gavage once daily to Sprague-Dawley Rats for 28 d (Calvert Labs/Altasciences, Scott Township, PA USA). The study also assessed the reversibility of any toxicity observed with a 14-d recovery period. One hundred thirty-six experimentally naïve Sprague-Dawley rats (68 males and 68 females), 8 weeks old and weighing 167-295 g for males and females at the outset of the study, were assigned to toxicology treatment groups (Groups 1-4) or toxicokinetic groups (Groups 5-7). For toxicology groups, 10 animals/sex/dose were administered 0, 300, 900, or 1500 mg/kg/d SRP-001. An additional 5 animals/sex/dose in Groups 1 and 4 were targeted for a 14-d recovery period and euthanized on day 43. For toxicokinetic groups, 6 animals/sex/dose were administered 300, 900, or 1500 mg/kg/d SRP-001. Mortality/morbidity was performed twice daily and once prior to scheduled sacrifice. Animals in Groups 1-4 were observed prior to each dose administration and 1-3 h post-dose. Animals in Groups 1-4 were also observed once daily on non-dosing days and once prior to scheduled sacrifice. Body weights were recorded prior to randomization/selection, prior to dose administration on day 1, and weekly thereafter. Food consumption was determined weekly for animals in Groups 1-4. Ophthalmology examinations were performed before treatment initiation and during the last week of dosing for animals in Groups 1-4. The functional observational battery was assessed for 5 animals/sex/group in Groups 1-4 once prior to dosing and at 1-2 h following dose administration on day 1. Blood for evaluation of hematology, coagulation, and clinical chemistry and urine for urinalysis was collected from animals in Groups 1-4 on day 29 or day 43. Blood for toxicokinetic evaluation was collected from animals in Groups 5-7 at selected timepoints on days 1 and 28. All surviving animals in Groups 1-4 were sacrificed on day 29 or day 43. Selected tissues were harvested at necropsy, selected organs weighed, and selected tissues evaluated microscopically.

Compound: CCN(CC)C(=O)c1ccccc1S(=O)(=O)NCC(=O)Nc1ccc(O)cc1 [SRP-001, N,N-diethyl-2-[[2-(4-hydroxyanilino)-2-oxo-ethyl]sulfamoyl]benzamide]
- effects on blood pressure, heart rate, ECG morphology, ECG measurements, body temperature ([1]; 30, 90 and 150 mg/kg oral): no effects on pulmonary function or cardio-telemetry; also recorded: did not induce any biologically relevant effects
- QTc ([1]; telemetered safety pharmacology study in dogs): no prolonged QTc
- incidence of micronuclei / clastogenicity (Male rats; 500, 1,000 and 2,000 mg/kg/d oral, two days): negative (non-clastogenic)
- % RETs (Male rats; treatment groups): Statistically significant decreases in % RETs
- liver weights and cholesterol (Sprague-Dawley rats [2]; 5 days oral gavage): increases in absolute and relative liver weights and increased cholesterol levels
- tolerated dose (Sprague-Dawley rats [2]; Sprague-Dawley, rat, in vivo, 5 d): 1200 mg/kg
- AUC and Cmax levels (Sprague-Dawley rats [2]; day 1 toxicokinetics): increased in a dose-dependent manner
- half-life (Sprague-Dawley rats [2]; high dose): 6.86 h
- Tmax (Sprague-Dawley rats [2]; low dose): 3 h
- Tmax (Sprague-Dawley rats [2]; mid and high doses): 4.5 h
- half-life (Sprague-Dawley rats [2]; mid dose): 6.19 h
- doses with minimal to mild centrilobular hepatocellular hypertrophy (Sprague-Dawley rats [3]; both, Sprague-Dawley, rat, in vivo, 28 d): ≥ 300 mg/kg/day
- doses without treatment-related adverse effects (Sprague-Dawley rats [3]; both, Sprague-Dawley, rat, in vivo, po, 28 d): up to 1500 mg/kg/day
- no-adverse effect level (NOAEL) (Sprague-Dawley rats [3]; once daily for 28 d): 1500 mg/kg
- hematology and serum chemistry changes (Sprague-Dawley rats [3]; rat, in vivo): increases in globulin, albumin, and total protein and decreases in aspartate aminotransferase, alkaline phosphatase, and mean corpuscular hemoglobin concentration
